Experimental data reported in patent US20100029643A1 (ASTRAZENECA AB, priority 2006, published 2010).

What follows are molecules tested against T1, Edg-1/S1P1 receptor (Homo sapiens, UniProt P21453) (assay: In vitro cell based receptor activation assay - Transfluor assay (assay I or II; beta-arrestin GFP relocalization after S1P stimulation)). Settings: at 3.30 μM (run with this as top concentration).
T1 construct: expressed in transfected cells; host or cells: human osteogenic sarcoma U2OS cells: Edg-1 Transfluor U2OS WT Clone #37 (assay I), Edg-1 Transfluor U2OS Clone #3 (assay II)
How it was run: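 U2OS cells overexpressing S1P1 with a beta-arrestin-GFP construct were pre-incubated with compound for 15 min at room temperature, then stimulated with S1P for 45 min at 37 °C. In assay I, final S1P was 375 nM or 750 nM and compound was a 9-point 3-fold series from 100 μM, in 1% DMSO. Cells were fixed and Hoechst-stained, GFP relocalization was imaged, and EC50 values were fitted.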

T1 sequence (P21453 whole entry): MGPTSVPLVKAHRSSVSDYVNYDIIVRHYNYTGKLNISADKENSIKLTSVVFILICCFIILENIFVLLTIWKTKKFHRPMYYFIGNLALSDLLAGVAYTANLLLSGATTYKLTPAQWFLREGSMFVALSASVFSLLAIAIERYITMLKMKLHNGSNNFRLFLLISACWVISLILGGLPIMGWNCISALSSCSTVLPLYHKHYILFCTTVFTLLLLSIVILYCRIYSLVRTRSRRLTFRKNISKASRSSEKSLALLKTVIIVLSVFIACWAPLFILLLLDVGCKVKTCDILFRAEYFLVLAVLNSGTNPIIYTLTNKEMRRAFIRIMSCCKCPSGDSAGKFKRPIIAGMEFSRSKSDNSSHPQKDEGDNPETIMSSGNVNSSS

For `CCn1c([C@@H](C)NS(=O)(=O)c2ccccc2)nc2ccc(C(F)(F)F)cc21` [Example 50, N-{(1R)-1-[1-Ethyl-6-(trifluoromethyl)-1H-benzimidazol-2-yl]ethyl}benzenesulfonamide], the inhibition at 3.3 µM was 92.1%.

Same assay, conditions: at 3.50 μM (titrated from top concentration 10 μM)

Point of comparison: `CCn1c([C@@H](C)NS(=O)(=O)c2ccncc2)nc2ccc(C(F)(F)F)cc21` [Example 127, (R)-N-(1-(1-Ethyl-6-(trifluoromethyl)-1H-benzo[d]imidazol-2-yl)ethyl)pyridine-4-sulfonamide], inhibition at 3.5 µM 86.4%. Against it:
- CCn1c([C@@H](C)NS(=O)(=O)c2cc(C)nc(C)c2)nc2ccc(C(F)(F)F)cc21 [Example 160, (R)-N-(1-(1-Ethyl-6-(trifluoromethyl)-1H-benzo[d]imidazol-2-yl)ethyl)-2,6-dimethylpyridine-4-sulfonamide] — higher, 90.3%
- CCn1c(C(C)(C)NS(=O)(=O)c2ccccc2)nc2ccc(C(F)(F)F)cc21 [Example 139, N-{(1R)-1-[1-Ethyl-6-(trifluoromethyl)-1H-benzimidazol-2-yl]-1-methyl-ethyl}benzenesulfonamide] — higher, 88.3%
- CCn1c([C@@H](C)NS(=O)(=O)c2ccc(Cl)cc2)nc2c(F)cccc21 [Example 90, 4-Chloro-N-[(1R)-1-(1-ethyl-4-fluoro-1H-benzimidazol-2-yl)ethyl]benzenesulfonamide] — higher, 93.4%
- CCn1c([C@@H](C)NS(=O)(=O)c2ccnc(C)c2)nc2ccc(C(F)(F)F)cc21 [Example 161, (R)-N-(1-(1-Ethyl-6-(trifluoromethyl)-1H-benzo[d]imidazol-2-yl)ethyl)-2-methylpyridine-4-sulfonamide] — higher, 91.4%
- CCn1c([C@@H](C)NS(=O)(=O)c2ccc3c(c2)OCO3)nc2ccc(C(F)(F)F)cc21 [Example 45, N-{(1R)-1-[1-Ethyl-6-(trifluoromethyl)-1H-benzimidazol-2-yl]ethyl}-1,3-benzodioxole-5-sulfonamide] — higher, 96%
- CCn1c([C@@H](C)NS(=O)(=O)c2ccc(C#N)nc2)nc2ccc(C(F)(F)F)cc21 [Example 105, (R)-6-Cyano-N-(1-(1-ethyl-6-(trifluoromethyl)-1H-benzo[d]imidazol-2-yl)ethyl) pyridine-3-sulfonamide] — higher, 93.1%
- CCn1c([C@@H](C)NS(=O)(=O)c2ccc(F)cc2)nc2ccc(C(F)(F)F)cc21 [Example 25, N-{(1R)-1-[1-Ethyl-6-(trifluoromethyl)-1H-benzimidazol-2-yl]ethyl}-4-fluorobenzenesulfonamide] — higher, 90%
- CCn1c([C@@H](C)NS(=O)(=O)c2cccnc2)nc2ccc(C(F)(F)F)cc21 [Example 126, (R)—N-(1-(1-ethyl-6-(trifluoromethyl)-1H-benzo[d]imidazol-2-yl)ethyl)pyridine-3-sulfonamide] — higher, 92.8%
- CCn1c([C@@H](C)NS(=O)(=O)c2ccc(Cl)cc2)nc2cc(C(F)(F)F)ccc21 [Example 92, 4-Chloro-N-{(1R)-1-[1-ethyl-5-(trifluoromethyl)-1H-benzimidazol-2-yl]ethyl}benzenesulfonamide] — lower, 86.1%
- CCn1c(C(C)NS(=O)(=O)c2ccc(=O)[nH]c2)nc2ccc(C(F)(F)F)cc21 (stereo not shown) [Example 171, N-(1-(1-ethyl-6-(trifluoromethyl)-1H-benzo[d]imidazol-2-yl)ethyl)-6-oxo-1,6-dihydropyridine-3-sulfonamide] — lower, 73.3%
- CCn1c([C@@H](C)NS(=O)(=O)c2ccc(C(N)=O)nc2)nc2cnc(C(F)(F)F)cc21 [Example 149, (R)-5-(N-(1-(1-Ethyl-6-(trifluoromethyl)-1H-imidazo[4,5-c]pyridin-2-yl)ethyl)sulfamoyl)picolinamide] — higher, 93.3%
- CCn1c([C@@H](C)NS(=O)(=O)c2cccs2)nc2ccc(C(F)(F)F)cc21 [Example 39, N-{(1R)-1-[1-Ethyl-6-(trifluoromethyl)-1H-benzimidazol-2-yl]ethyl}thiophene-2-sulfonamide] — higher, 92.5%
- CCn1c([C@@H](C)NS(=O)(=O)c2cc(C)oc2C)nc2ccc(C(F)(F)F)cc21 [Example 33, N-{(1R)-1-[1-Ethyl-6-(trifluoromethyl)-1H-benzimidazol-2-yl]ethyl}-2,5-dimethylfuran-3-sulfonamide] — higher, 92%
- CCn1c([C@@H](C)NS(=O)(=O)c2ccc(Cl)cc2)nc2cc3c(cc21)OCO3 [Example 63, (R)-4-Chloro-N-[1-(5-Ethyl-5H-[1,3]dioxolo[4′,5′;4,5]-benzo[1,2-d]imidazol-6-yl)-ethyl]benzenesulfonamide] — higher, 93.9%

`CCn1c([C@@H](C)NS(=O)(=O)c2ccc(NC(=O)N(C)C)cc2)nc2ccc(C(F)(F)F)cc21` [Example 113, (R)-4-(3,3-Dimethylureido)-N-(1-(1-ethyl-6-(trifluoromethyl)-1H-benzo[d]imidazol-2-yl)ethyl)benzenesulfonamide] was tested, and the “% inhibition” value was “[drawing 125] (R)-4-(3,3-Dimethylureido)- N-(1-(1-ethyl-6- (trifluoromethyl)-1H- benzo[d]imidazol-2-yl)ethyl)benzenesulfonamide (Inactive at 3.50 μM)”.
In the case of `CCn1c([C@@H](C)NS(=O)(=O)c2ccc(NC(N)=O)cc2)nc2ccc(C(F)(F)F)cc21` [Example 112, (R)-N-(1-(1-Ethyl-6-(trifluoromethyl)-1H-benzo[d]imidazol-2-yl)ethyl)-4-ureidobenzenesulfonamide], the “% inhibition” value is reported as “[drawing 124] (R)-N-(1-(1-Ethyl-6- (trifluoromethyl)-1H- benzo[d]imidazol-2-yl)ethyl)- 4-ureidobenzenesulfonamide (Inactive at 3.50 μM)”.

Same assay, conditions: at 3.70 μM (titrated from top concentration 100 μM)

Point of comparison: `CCn1c([C@@H](C)NS(=O)(=O)c2ccc(Cl)cc2)nc2cnc(Cl)cc21` [Example 97, 4-chloro-N-[(1R)-1-(6-chloro-1-ethyl-1H-imidazo[4,5-c]pyridin-2-yl)ethyl]benzenesulfonamide], inhibition at 3.7 µM 88.9%. Against it:
- CCn1c([C@@H](C)NS(=O)(=O)c2ccc(Cl)cc2)nc2cc(-c3cccnc3)ccc21 [Example 82, 4-Chloro-N-[(1R)-1-(1-ethyl-5-pyridin-3-yl-1H-benzimidazol-2-yl)ethyl]benzenesulfonamide] — lower, 10.3%
- CCCn1ncc(S(=O)(=O)N[C@H](C)c2nc3ccc(C(F)(F)F)cc3n2CC)c1C [Example 54, N-{(1R)-1-[1-Ethyl-6-(trifluoromethyl)-1H-benzimidazol-2-yl]ethyl}-5-methyl-1-propyl-1H-pyrazole-4-sulfonamide] — lower, 77.5%
- CCn1c([C@@H](C)NS(=O)(=O)c2ccc(Cl)cc2)nc2ccc(SC)cc21 (stereo in doubt) [Example 79, 4-Chloro-N-{1-[1-ethyl-6-(methylthio)-1H-benzimidazol-2-yl]ethyl}benzenesulfonamide] — higher, 94.9%
- CCn1c([C@@H](C)NS(=O)(=O)c2ccc(Cl)cc2)nc2cc(C(F)(F)F)c(Cl)cc21 [Example 85, 4-Chloro-N-{(1R)-1-[6chloro-1-ethyl-5-(trifluoromethyl)-1H-benzimidazol-2-yl]ethyl}benzenesulfonamide] — lower, 44.9%
- CCn1c([C@@H](C)NS(=O)(=O)c2ccc(Cl)cc2)nc2cc(F)cc(F)c21 [Example 57, 4-Chloro-N-[(1R)-1-(1-ethyl-5,7-difluoro-1H-benzimidazol-2-yl)ethyl]benzenesulfonamide] — lower, 84.5%
- CCOC(=O)c1ccc2nc([C@@H](C)NS(=O)(=O)c3ccc(Cl)cc3)n(CC)c2c1 (stereo in doubt) [Example 67, Ethyl 2-(1-{[(4-chlorophenyl)sulfonyl]amino}-ethyl)-1-ethyl-1H-benzimidazole-6-carboxylate] — higher, 91.3%
- CCn1c([C@@H](C)NS(=O)(=O)c2ccc(NC(C)=O)c(C)c2)nc2ccc(C(F)(F)F)cc21 [Example 29, N-{4-[({(1R)-1-[1-Ethyl-6-(trifluoromethyl)-1H-benzimidazol-2-yl]ethyl}amino)sulfonyl]-2-methylphenyl}acetamide] — lower, 21.8%
- CCn1c(C(C)NS(=O)(=O)c2ccc(Cl)cc2)nc2ccc(Cl)cc21 (stereo not shown) [Example 10, 4-Chloro-N-[1-(6-chloro-1-ethyl-1H-benzimidazol-2-yl)ethyl]benzenesulfonamide] — higher, 89.9%
- CCn1c(C(C)NS(=O)(=O)c2ccc(Cl)cc2)nc2cccnc21 (stereo not shown) [Example 15, 4-Chloro-N-[1-(3-ethyl-3H-imidazo[4,5-b]pyridin-2-yl)ethyl]benzenesulfonamide] — lower, 61.5%
- CCn1c(C(C)NS(=O)(=O)c2ccc(Cl)cc2)nc2c(Cl)nccc21 (stereo not shown) [Example 94, 4-Chloro-N-[1-(4-chloro-1-ethyl-1H-imidazo[4,5-c]pyridin-2-yl)ethyl]benzenesulfonamide] — higher, 91.6%
- CCn1c([C@@H](C)NS(=O)(=O)c2ccc(Cl)cc2)nc2cc(-c3ccncc3)ccc21 [Example 83, 4-Chloro-N-[(1R)-1-(1-ethyl-5-pyridin-4-yl-1H-benzimidazol-2-yl)ethyl]benzenesulfonamide] — lower, 16.4%
- CCn1c([C@@H](C)NS(=O)(=O)C2CC2)nc2ccc(C(F)(F)F)cc21 [Example 38, N-{(1R)-1-[1-Ethyl-6-(trifluoromethyl)-1H-benz-imidazol-2-yl]ethyl}cyclo-propanesulfonamide] — lower, 35.1%
- CCn1c([C@@H](C)NS(=O)(=O)c2c(C)noc2C)nc2ccc(C(F)(F)F)cc21 [Example 37, N-{(1R)-1-[1-Ethyl-6-(trifluoromethyl)-1H-benzimidazol-2-yl]ethyl}-3,5-dimethylisoxazole-4-sulfonamide] — lower, 58.3%
- CCn1c([C@@H](C)NS(=O)(=O)c2ccc(Cl)cc2)nc2cc(Br)ccc21 [Example 81, N-[(1R)-1-(5-Bromo-1-ethyl-1H-benzimidazol-2-yl)ethyl]-4-chlorobenzenesulfonamide] — higher, 91.6%

For “4-Chloro-N-{1-[1-ethyl-6-(methylsulfonyl)-1H-benzimidazol-2-yl]ethyl}benzenesulfonamide [Example 80]”, the “% inhibition” value was “[drawing 92] 4-Chloro-N-{1-[1-ethyl-6- (methylsulfonyl)-1H- benzimidazol-2-yl]ethyl}benzenesulfonamide (22.57% inhibition at 3.70 μM)”.
